Measurements from PubChem BioAssay (NCI).
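Where inhibition never reached the appropriate level, the endpoint shown equals the highest concentration tested. Otherwise, values were interpolated linearly from a five-concentration, 48-hour dose response in 96-well plates. Definition used: TGI = concentration required for complete inhibition of growth.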

How the values were obtained:
Assay in all cases: NCI-60 cell line screen, 48 h
LOX IMVI melanoma = test system: LOX IMVI melanoma
RPMI-8226 leukemia = test system: RPMI-8226 leukemia
SK-OV-3 ovarian = test system: SK-OV-3 ovarian
HCT-116 colon = test system: HCT-116 colon
SF-295 CNS = test system: SF-295 CNS
SNB-19 CNS = test system: SNB-19 CNS
UACC-257 melanoma = test system: UACC-257 melanoma
NCI-H23 lung = test system: NCI-H23 lung
MALME-3M melanoma = test system: MALME-3M melanoma
HL-60(TB) leukemia = test system: HL-60(TB) leukemia
K-562 leukemia = test system: K-562 leukemia
UACC-62 melanoma = test system: UACC-62 melanoma

SMILES	TGI (LOX IMVI melanoma) [µM]	TGI (RPMI-8226 leukemia) [µM]	TGI (SK-OV-3 ovarian) [µM]	TGI (HCT-116 colon) [µM]	TGI (SF-295 CNS) [µM]	TGI (SNB-19 CNS) [µM]	TGI (UACC-257 melanoma) [µM]	TGI (NCI-H23 lung) [µM]	TGI (MALME-3M melanoma) [µM]	TGI (HL-60(TB) leukemia) [µM]	TGI (K-562 leukemia) [µM]	TGI (UACC-62 melanoma) [µM]
CC(=O)[C@H]1CC[C@@H]2[C@]1(C)CC=C1[C@]23C=C[C@]2(C[C@@H](O)CC[C@]12C)C(C(=O)O)C3C(=O)O (stereo partly specified)	> 100	> 100	> 100	> 100	> 100	> 100	> 100	> 100	> 100	> 100	> 100	> 100
C=c1c2ccccc2oc2nc3[nH]c(N)c(C#N)c(N)c3c(=N)c12	68.4	> 100	> 100	> 100	> 100	> 100	> 100	62.7	78.7	90.3	> 100	> 100
CN(C)c1ccc(/C=C(\C#N)C(=O)c2ccccc2)cc1Br	74.2	63.4	> 100	> 100	> 100	> 100	> 100	> 100	> 100	57.6	> 100	> 100
COc1ccc2cc(CNCCOCCOCCNCc3ccc4cc(OC)ccc4c3)ccc2c1	1.22	2.03	3.28	7.86	2.59	3.09	3.18	3.02	2.83	0.657	1.92	3.38
CC(=O)OC1CC[C@@]2(C)C(=CC[C@@H]3[C@@H]2CC[C@]2(C)Nc4c(cnn4-c4ccc(F)cc4)C[C@@H]32)C1 (stereo partly specified)	> 58.6	28.3	> 100	> 50.5	36.4	> 100	> 100	> 100	> 77.6	> 26	> 100	> 71.1
O=C(NC12CC3CC(CC(C3)C1)C2)n1cnc2c(Cl)ncnc21	37.9	> 100	79.4	> 100	> 100	> 100	> 100	65.4	> 100	16.9	> 100	> 100
Cn1c(=Nc2ccccc2[N+](=O)[O-])sc2ccccc21	> 100	> 100	97.2	> 100	> 100	> 100	> 100	> 100	> 100	> 100	> 100	> 100
COC(=O)C12CCC(CC1=O)C2(C)C (stereo unspecified)	> 100	> 100	> 100	> 100	> 100	> 100	> 100	> 100	> 100	> 100	> 100	> 100
COc1ccc(-c2oc(C=Nc3ccccc3)c([N+](=O)[O-])c2-c2ccc(OC)c(OC)c2)cc1OC	> 100	> 100	> 100	> 100	> 100	> 100	> 100	> 100	> 100	> 100	> 100	> 100
c1ccc(C(OCCN2CC3CCC(C2)N3)c2ccccc2)cc1	> 100	> 100	> 100	> 100	> 100	> 100	49	> 100	30.5	> 100	> 100	64.3
COc1cc2c(cc1OC)C/C(=N\O)c1cc(OC)c(OC)cc1/C=C\2	25.6	66.9	> 85.3	> 39.2	> 61	> 65.5	> 48.8	> 100	9.9	19.5	> 100	> 58
CN(C)CC(O)CNC(=O)Nc1ccccc1 (stereo unspecified)	> 100	> 100	> 100	> 100	> 100	> 100	> 100	> 100	> 100	> 100	> 100	> 100
COc1cc([C@@H]2c3cc4c(cc3[C@H](OC3OC5COC(C(C)C)OC5C(O)C3O)C3COC(=O)[C@@H]32)OCO4)cc(OC)c1OC (stereo partly specified)	27	48.8	> 100	7.8	> 23.8	> 40.6	22.6	16.5	30.5	> 25.8	> 100	26.6
CCN(CC)CCNC(=O)C1COc2ccc(-c3cc(=O)c4ccccc4o3)cc2O1 (stereo unspecified)	31.7	55.2	47	32.7	39.3	59.9	32	60.3	30.3	30.8	49	31.9
Nc1nc(Cl)cc(Oc2ccc(Cl)cc2)n1	> 100	> 100	> 100	> 100	> 100	> 100	> 100	> 100	> 100	> 100	> 100	> 100
COC(=O)C1=C(C(=O)OC)SC2(S1)C(C(=O)OC)=C(C(=O)OC)Sc1c2ssc1=O	0.817	5.68	24.8	1.78	27.6	34.2	3.59	4.12	1.55	0.0492	2.86	1.37
CCN1CC2(CO)CCC(OC)C34C5CC6C(OC)CC(O)(C5C6OC)C(O)(C(OC)C23)C14 (stereo unspecified)	> 375	> 375	> 375	> 375	> 375	> 375	> 375	> 375	> 375	> 375	> 375	> 375
Cc1cccc(N=Nc2ccc(O)c(CN(C)C)c2)c1	26.9	> 100	> 100	> 100	86.5	> 100	36	> 100	21.8	54.2	16.1	30.4
